Test results as given in patent US7265125B2, “Neuropeptide Y antagonists” (Hoffmann-La Roche Inc., priority 2000, dated 2007).

Assays:
[1] = molecular target: T1, mouse NPY5-receptor (mNPY5) (Mus musculus, UniProt O70342); assay: Radioligand competition binding; conditions: HEK293 membranes expressing recombinant mNPY5; 100 pM [125I]labelled peptide YY; 1 h at 22° C.
T1 construct: The full-length cDNA encoding the mouse NPY5 (mNPY5) receptor was amplified from mouse brain cDNA; expressed in transfected cells; membrane preparation
T1 sequence (O70342 1-466): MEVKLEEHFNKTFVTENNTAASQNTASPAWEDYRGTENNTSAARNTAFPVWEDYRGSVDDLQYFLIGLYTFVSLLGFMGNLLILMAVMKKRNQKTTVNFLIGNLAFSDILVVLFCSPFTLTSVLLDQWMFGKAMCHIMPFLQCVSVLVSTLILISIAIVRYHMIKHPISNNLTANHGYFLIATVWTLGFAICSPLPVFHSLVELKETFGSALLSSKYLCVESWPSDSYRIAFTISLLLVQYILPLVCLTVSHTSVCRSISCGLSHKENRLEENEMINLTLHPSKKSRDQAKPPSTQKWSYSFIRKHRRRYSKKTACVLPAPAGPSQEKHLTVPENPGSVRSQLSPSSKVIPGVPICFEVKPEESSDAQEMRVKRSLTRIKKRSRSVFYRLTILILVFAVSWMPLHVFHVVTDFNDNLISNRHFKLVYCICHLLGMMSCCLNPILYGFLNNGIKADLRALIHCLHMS
Text: The full-length cDNA encoding the mouse NPY5 (mNPY5) receptor was amplified from mouse brain cDNA using specific primers, designed based on the published sequence, and Pfu DNA-Polymerase (Stratagene). The amplification product was subcloned into the mammalian expression vector pcDNA3 using Eco RI and XhoI restriction sites. Positive clones were sequenced and one clone, encoding the published sequence was selected for generation of stable cell clones.
Human embryonic kidney 293 (HEK293) cells were transfected with 10 μg mNPY5 DNA using the lipofectamine reagent (Gibco BRL) according to the manufacturer's instruction. Two days after transfection, geneticin selection (1 mg/ml) was initiated and several stable clones were isolated. One clone was further used for pharmacological characterization.
Human embryonic kidney 293 cells (HEK293), expressing recombinant mouse NPY5-receptor (mNPY5) were broken by three freeze/thawing cycles in hypotonic Tris buffer (5 mM, pH 7.4, 1 mM MgCl2), homogenized and centrifuged at 72,000×g for 15 min. The pellet was washed twice with 75 mM Tris buffer, pH 7.4, containing 25 mM MgCl2 and 250 mM sucrose, 0.1 mM phenylmethylsulfonylfluoride and 0.1 mM 1,10-pheneanthrolin, resuspended in the same buffer and stored in aliquots at −80° C. Protein was determined according to the method of Lowry using bovine serum albumine (BSA) as a standard. […]

With `COc1ccc(-c2ccc3c(N4CCCC4)cc(C)nc3c2)cc1` [Example 1.6, 7-(4-methoxy-phenyl)-2-methyl-4-pyrrolidin-1-yl-quinoline] the IC50 [1] was 60 nM.

For `Cc1cc(N2CCCCC2)c2ccc(-c3cccs3)cc2n1` [Example 1.15, 2-methyl-4-piperidin-1-yl-7-thiophen-2-yl-quinoline], the melting point was 122 to 123 °C.

For `Cc1cc(N2CCCCC2)c2ccc(-c3ccccc3)cc2n1` [Example 1.16, 2-methyl-7-phenyl-4-piperidin-1-yl-quinoline], the melting point was 111 to 112 °C.

For `Cc1cc(N2CCCCC2)c2ccc(-c3ccc4[nH]ccc4c3)cc2n1` [Example 1.17, 7-(1H-Indol-5-yl)-2-methyl-4-piperidin-1-yl-quinoline], the IC50 [1] was 100 nM.
